Measurements published in US9192650B2, “Methods of inhibiting photoreceptor apoptosis by eliciting the Faim2 antiapoptotic pathway” (The Regents of the University of Michigan, priority 2011, dated 2015).
“Also recorded” adds a separate entry of the source.

Tests used:
Faim2 = assay: Immunoblot of Faim2 protein levels in 661W cells; assay type: cell-based, mouse; conditions: 661W cells treated with Fas-AAb
Protocol: (§1) The 661W cell line was maintained in Dulbecco's modified Eagle's medium containing 10% fetal bovine serum, 300 mg/L glutamine, 32 mg/L putrescine, 40 μL/L of β-mercaptoethanol, and 40 μg/L of both hydrocortisone 21-hemisuccinate and progesterone. The media also contained penicillin (90 units/mL) and streptomycin (0.09 mg/mL). Cells were grown at 37° C. in a humidified atmosphere of 5% CO2 and 95% air.
(§2) Retinas from experimental eyes with detachments and control eyes without detachments were dissected from the RPE-choroid, homogenized, and lysed in buffer containing 10 mM HEPES (pH 7.6), 0.5% IgEPal, 42 mM KCl, 1 mM phenylmethylsulfonyl fluoride (PMSF), 1 mM EDTA, 1 mM EGTA, 1 mM dithiothreitol (DTT), and 5 mM MgCl2 and 1 tablet of protease inhibitors per 10 mL buffer (Complete Mini; Roche Diagnostics GmbH, Madison, Wis.). 661W cells were lysed and homogenized in lysis buffer (as above). The homogenates were incubated on ice and centrifuged at 22,000 g at 4° C. for 60 minutes. The protein concentration of the supernatant was then determined (DC Protein Assay kit; Bio-Rad Laboratories, Hercules, Calif.). The protein samples were separated on SDS-polyacrylamide gels (Tris-HCl Ready Gels; Bio-Rad Laboratories, Hercules, Calif.). […] Protein bands were visualized with Ponceau S staining, and the lanes were assessed for equal loading by densitometry of entire lanes. […]

661W cells = assay: Luminescent cell viability assay, Fas-mediated cell death of 661W cells; assay type: cell-based; conditions: 661W cells treated with Fas-AAb
Protocol: as §1
Cell viability was measured by a commercially available luminescent assay kit (Promega, Madison, Wis.). The 661W cells were seeded in 96-well plates (Nunc, Rochester, N.Y.) at 1000-1500 cells/well for 24 hours prior to treatment. Cells were treated with 500 ng/mL of Fas-agonistic Jo2 monoclonal antibody (BD Biosciences, Franklin Lakes, N.J.). In some experiments, cells were pretreated with MEK inhibitor U0126, JNK inhibitor SP600125, or DMSO. Cell viability was measured at various time points by incubating the cells with the pro-luminescent substrate in 96-well plates following manufacturer's instructions. Controls included untreated cells and wells with no cells. Luminescence was measured in a plate reader luminometer (Turner Biosystems, Sunnyvale Calif.).

ERK = assay: Immunoblot of ERK phosphorylation (P-ERK) in Fas-AAb treated 661W cells; assay type: cell-based; conditions: inhibitor pretreatment 1 hour before Fas-AAb
Protocol: as §1, §2

caspase 3 = assay: Luminescent caspase 3 activity assay in 661W cells; assay type: cell-based
Protocol: as §1
(§3) Caspase 8 and Caspase 3 activity were measured by a commercially available luminescent tetrapeptide cleavage assay kits (Promega, Madison, Wis.). The 661W cells were seeded in 96-well plates (Nunc, Rochester, N.Y.) at 1000-1500 cells/well for 24 hours prior to treatment or siRNA transfection. Cells were treated with 500 ng/mL of Fas-agonistic Jo2 monoclonal antibody (BD Biosciences, Franklin Lakes, N.J.). In some experiments, cells were pretreated with MEK inhibitor U0126, JNK inhibitor SP600125, or DMSO. Caspase activity was measured at various time points by incubating the cells with the pro-luminescent substrate in 96-well plates following manufacturer's instructions. Controls included untreated cells and wells with no cells. Luminescence was measured in a plate reader luminometer (Turner Biosystems, Sunnyvale, Calif.).

caspase 8 = assay: Luminescent caspase 8 activity assay in 661W cells; assay type: cell-based
Protocol: as §1
as §3, with “Calif.). […]” for “Calif.).”

c-Jun = assay: Immunoblot of phosphorylation of JNK-target c-Jun (P-c-Jun) in Fas-AAb treated 661W cells; assay type: cell-based; conditions: inhibitor pretreatment 1 hour before Fas-AAb
Protocol: as §1, §2

[1] = 661W cells treated with Fas-AAb
[2] = 661W cells, 24 hours of Fas-AAb treatment

| SMILES | Faim2 levels in Fas-AAb treated cells in presence of MAPK inhibitor (Faim2) | Faim2 level by densitometry (Faim2; 10 μM dose of inhibitor) | Fas-AAb-mediated cell death in presence of inhibitor (661W cells) | Concentration of maximal inhibition of Fas-AAb-induced ERK phosphorylation (ERK) [µM] | Effect on Fas-AAb-induced phosphorylation of ERK (ERK; protein isolated 4 hours later) | Maximally-effective dose for increasing caspase 3 activity (caspase 3; [1]) [µM] | Caspase 3 activity in presence of inhibitor (caspase 3; [2]) | Maximally-effective dose for increasing caspase 8 activity (caspase 8; [1]) [µM] | Caspase 8 activity in presence of inhibitor (caspase 8; [2]) | Concentration of maximal effect on Fas-AAb-dependent c-Jun phosphorylation (c-Jun) [µM] |
| --- | --- | --- | --- | --- | --- | --- | --- | --- | --- | --- |
| N#CC(=C(/N)Sc1ccccc1N)/C(C#N)=C(\N)Sc1ccccc1N [U0126] | dose-dependent inhibition; also recorded: reduced the levels of Faim2 | significant decrease | increased Fas-AAb-mediated cell death | 10 | effective in preventing | 10 | dose-dependent increase | 10 | dose-dependent increase |  |
| Oc1c2ccccc2c2c3c(cccc13)N=N2 [SP600125] |  |  |  |  |  |  |  |  |  | 10 to 20 |
